# According to patent publication US8548786B2, “Neuronal avalanche assay” (priority 2005, dated 2013):
# Legend:
# [1] = test system: acute somatosensory cortex slices; assay: Neuronal avalanche induction in acute somatosensory cortex slices; format: cell-based, rat; details: 3 μM SKF38393 + 3 μM NMDA
# [2] = test system: acute slices of rat medial prefrontal cortex (mPFC); assay: Neuronal avalanche (NAS) assay, microelectrode array LFP recording in acute mPFC slices;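 note: 60-electrode array recordings, low-pass filtered at 200 Hz and sampled at 1 kHz, nLFPs detected below −3 SD of electrode noise, avalanches as runs of active bins between silent bins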
# Experimental: Continuous extracellular signals v(t) can be recorded between 0.1 Hz and 3000 Hz, low-pass filtered at 200 Hz (Butterfly-filter, Multichannel Systems), digitised at a rate of 1 kHz (Δt=1 ms) and stored. For each electrode k (k=[1, nelec], nelec=60), the electrode noise of v(t) can be estimated by calculating the mean and standard deviation (SD) of v(t) from the total duration of the recording, Ttot, which can range, for example, between 40-60 min. […] Negative LFP peaks (nLFPs) at electrode k can be detected by negative threshold crossing at −3 SD of electrode noise and can be characterized by the time and absolute amplitude of the negative LFP peak, A^k(ti), before v(t) returned to threshold. More precisely, at a given temporal resolution Δt, nLFPs at electrode k can be represented by a vector of length nmax, where nmax is an integer value for which Ttot=nmax·Δt. This vector can contain zeros, except for positions ti=i·Δt, iε[1, . . . , nmax,] with values A^k(ti) in μV.
# A neuronal avalanche is a sequence of consecutive time bins of width Δt with at least one nLFP, which is preceded and terminated by at least one time bin with no activity (FIG. 3A). The absence of activity for a period of Δt thus indicates the end of an avalanche. If the decision of whether an avalanche has ended is made too early (Δt too short), avalanches will be terminated prematurely; if the Δt chosen is too long, avalanches will be falsely concatenated. If avalanches did simply propagate like a wave, an approximation for Δt (Δtavg) could be obtained by averaging the time between one nLFP at one electrode and the next nLFP at neighbouring electrodes only. Because nLFPs in avalanches occur in irregular patterns across electrodes on the array, a pair wise approximation can be used in order to assess the average time that is required for nLFPs to propagate between electrodes.
# In order to calculate Δtavg, the distribution of time intervals T for successive nLFPs on the array can be obtained. Starting with the first nLFP, e.g. A^k(ti) on electrode k at time ti, the next occurrence of an nLFP on the array can be searched for, e.g. A^l(tj) on electrode l at time tj, and calculated the time interval Tm-Δt^k,l, where m=(tj−ti)/Δt. This process can be repeated for all occurrences of nLFPs on electrode k and for all electrodes. The resulting values can be combined into one density distribution P(TmΔt), which captures how often successive nLFPs occurred with a particular delay m·Δt on the array irrespective of their spatial location. Consequently, the average value of T provides an approximation for Δtavg, the average time to wait before making a decision whether an nLFP propagated on the array. However, this interval distribution is highly skewed, particularly when one compares the last nLFP with the first nLFP in successive avalanches that are separated by long times. In order to exclude time intervals from successive nLFPs that are barely correlated, a cut-off time τmax can be calculated for which the average crosscorrelation function (ccf) for pair wise electrode comparisons Rccf(τ) had decayed to negligible values. The ccf between electrodes k, l (Rccf^k,l(τ)) can be calculated as
# Because the exemplary maximal sampling rate was 1 kHz, the actual Δt^avg to calculate avalanches can be taken as the nearest multiple of Δt=1 ms. In short, after Δtavg was calculated for a particular network and experimental condition, the extracellular signals v(t) can be re-sampled at the new temporal resolution of Δtavg. Time and amplitude of nLFP peaks can be extracted as A^k(ti), where ti=i·Δtavg, iε[1, n′max] and Ttot=n′max·Δtavg. Avalanches can be determined on the downsampled data set at bin width Δtavg.
# Avalanche sizes can be calculated in two different ways (see also FIG. 3A).
smiles,measurement,setting,value
Cl.Oc1cc2c(cc1O)C(c1ccccc1)CNCC2 (racemic) [SKF38393],avalanche induction and layer localisation,[1],induced neuronal avalanches primarily in superficial layers
same,average nLFP peak amplitude,[2]; 3 μM SKF38393 + 3 μM NMDA,6.62±0.01 mV
same,Δtavg,[2]; 3 μM SKF38393 + 3 μM NMDA,3.3±0.2
same,total activity at slope α ~−1.5 compared to dopamine,"[2]; 3 μM SKF38393 + 3 μM NMDA vs 30 μM dopamine, p=0.007",significantly reduced level of total activity compared to dopamine
same,slope αLFP after rescue by added NMDA,"[2]; 3 μM SKF38393 alone first, then 3 μM NMDA added",−1.55±0.07
same,induction of nLFPs or avalanches,"[2]; 3 μM SKF38393 alone, without NMDA",did not induce nLFPs or avalanches
same,slope α of avalanche size distribution,"[2]; SKF38393 higher or lower than 3 μM (0.3-300 μM range), + 3 μM NMDA",< −1.5
